Test results taken from patent publication US20090025102A1, “GLUTAMATE RECEPTOR […] AND PROTEINS FOR ENHANCING NITROGEN U[…] CROP PLANTS” (PIONEER HI-BRED INTERNATIONAL, INC., priority 2007, published 2009).

How the values were obtained:
AtGLR-AP knockout lines [1] = test: Germination bioassay with the iGLR antagonist DNQX; format: in vivo, Arabidopsis
Experimental: Therefore we used a similar approach to test the sucrose sensitivity of the homozygous AtGLR-APs lines described above by conducting vertical plate assays on MS plates minus N and supplemented with increasing concentrations of sucrose. […] We also developed a short term N-sensitivity bioassay.
Bioassay, iGLR Antagonist DNQX
However, germination of the GRASP2.1-1 line was not affected when DNQX was added to the media.

[2] = tested on: PSD1.1 and PSD2.1 KO plants; test: Growth assay of PSD1.1 and PSD2.1 KO plants on media containing DNQX; format: in vivo, Arabidopsis; conditions: 200 or 400 μM DNQX and 3% sucrose, 7 days
Experimental: Growth assays for the PSD1.1 and PSD2.1 KO plants were undertaken. Plants were sown on different media, refrigerated overnight, then incubated in the standard growth conditions for 7 days. The short vernalization was used as that is what has been typically used in this lab for DNQX experiments. […] When grown in the presence of 3% sucrose, both on MS and media lacking nitrogen PSD1.1 and PSD2.1 looks similar to Col-0.

AtGLR-AP knockout lines [3] = conditions: lines deficient in AtGLR1.1, uM 200, previously demonstrated; cited from earlier work

## O=c1[nH]c2cc([N+](=O)[O-])c([N+](=O)[O-])cc2[nH]c1=O [DNQX, 6,7-dinitroquinoxaline-2,3-[1H,4H]-dione]
AtGLR-AP knockout lines [1]; GRASP2.1-1 line
  germination when DNQX was added to the media: not affected
AtGLR-AP knockout lines [1]; GRASP2.3-6 line
  germination on media supplemented DNQX: noticeable reduction in germination
AtGLR-AP knockout lines [1]; PSD1.1 knockout, 200 uM DNQX
  decrease in germination: 35-40%
[2]
  difference between Col-0 and the two KO lines: No obvious difference
AtGLR-AP knockout lines [3]
  sensitivity of Arabidopsis lines deficient in AtGLR1.1 to the iGLR antagonist: sensitive
